Assay results published in ChEMBL document CHEMBL2396564, “Synthesis and biological evaluation of a targeted DNA-binding transcriptional activator with HDAC8 inhibitory activity” (Bioorg Med Chem, 2013).
The source made the active and inactive calls. No cut-off for these calls is given here.

Columns and labels:
[1] = target: T1, Histone deacetylase 8 (Mus musculus) (UniProt Q8VH37); test: Inhibition of HDAC8 in C57BL/6 mouse embryonic fibroblasts assessed as induction of histone H3 hyperacetylation in promoter region of Lhx1 at 100 nM after 24 hrs by ChIP analysis
T1 sequence (whole entry): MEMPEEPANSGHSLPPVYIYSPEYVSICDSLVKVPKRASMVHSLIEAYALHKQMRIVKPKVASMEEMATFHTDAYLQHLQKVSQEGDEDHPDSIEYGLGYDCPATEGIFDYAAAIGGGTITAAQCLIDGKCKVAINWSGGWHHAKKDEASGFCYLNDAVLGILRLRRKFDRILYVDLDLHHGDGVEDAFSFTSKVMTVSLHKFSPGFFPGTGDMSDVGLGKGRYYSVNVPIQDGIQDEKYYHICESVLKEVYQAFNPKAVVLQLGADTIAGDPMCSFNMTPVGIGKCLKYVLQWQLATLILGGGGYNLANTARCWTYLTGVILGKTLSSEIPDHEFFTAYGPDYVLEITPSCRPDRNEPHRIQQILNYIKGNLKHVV

MEF [2] = test: Upregulation of c-Myc expression in C57BL/6 mouse embryonic fibroblasts at 100 nM after 24 hrs by qPCR analysis; type: functional, cell-based
MEF [3] = test: Upregulation of Klf4 expression in C57BL/6 mouse embryonic fibroblasts at 100 nM after 24 hrs by qPCR analysis; type: functional, cell-based
[4] = target: T1, Histone deacetylase 8 (Mus musculus); test: Inhibition of HDAC8 in C57BL/6 mouse embryonic fibroblasts assessed as upregulation of Rex1 expression at 100 nM after 24 hrs by qPCR analysis relative to control
[5] = target: T1, Histone deacetylase 8 (Mus musculus); test: Inhibition of HDAC8 in C57BL/6 mouse embryonic fibroblasts assessed as upregulation of Lhx1 expression at 100 nM after 24 hrs by qPCR analysis relative to control
[6] = target: T2, Histone deacetylase 8 (Homo sapiens) (UniProt Q9BY41); test: Ratio of trichostatin A IC50 to compound IC50 for HDAC8 (unknown origin)
T2 sequence (whole entry): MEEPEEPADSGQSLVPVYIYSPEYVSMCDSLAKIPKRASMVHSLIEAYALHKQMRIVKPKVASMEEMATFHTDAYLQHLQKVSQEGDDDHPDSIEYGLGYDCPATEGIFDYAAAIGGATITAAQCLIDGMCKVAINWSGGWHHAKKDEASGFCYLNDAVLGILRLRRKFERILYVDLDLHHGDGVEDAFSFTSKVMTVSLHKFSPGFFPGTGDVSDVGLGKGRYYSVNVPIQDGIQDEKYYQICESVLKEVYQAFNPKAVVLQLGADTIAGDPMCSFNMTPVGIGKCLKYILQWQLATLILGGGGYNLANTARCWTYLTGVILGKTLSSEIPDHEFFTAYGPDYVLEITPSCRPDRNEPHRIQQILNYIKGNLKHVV

[7] = target: T1, Histone deacetylase 8 (Mus musculus); test: Inhibition of HDAC8 in C57BL/6 mouse embryonic fibroblasts assessed as induction of histone H3 hyperacetylation in promoter region of Nanog at 100 nM after 24 hrs by ChIP analysis
[8] = target: T1, Histone deacetylase 8 (Mus musculus); test: Inhibition of HDAC8 in C57BL/6 mouse embryonic fibroblasts assessed as upregulation of Sox2 expression at 100 nM after 24 hrs by qPCR analysis relative to control
Histone deacetylase 1 = Histone deacetylase 1 (Homo sapiens, UniProt Q13547); test: Inhibition of HDAC1 (unknown origin) after 30 mins by fluorometric analysis
Histone deacetylase 2 = Histone deacetylase 2 (Homo sapiens, UniProt Q92769); test: Inhibition of HDAC2 (unknown origin) after 30 mins by fluorometric analysis
[9] = target: T1, Histone deacetylase 8 (Mus musculus); test: Inhibition of HDAC8 in C57BL/6 mouse embryonic fibroblasts assessed as induction of histone H3 hyperacetylation in promoter region of Rex1 at 100 nM after 24 hrs by ChIP analysis
Histone deacetylase 8 = target: T3, Histone deacetylase 8 (Homo sapiens, UniProt Q9BY41); test: Inhibition of HDAC8 (unknown origin) after 30 mins by fluorometric analysis
T3 sequence (Q9BY41 whole entry): T2 sequence (whole entry)

MEF [10] = test: Cytotoxicity against C57BL/6 mouse embryonic fibroblasts assessed as cell viability at 10 uM after 24 hrs by WST-8 assay; type: cell-based
[11] = target: T1, Histone deacetylase 8 (Mus musculus); test: Inhibition of HDAC8 in C57BL/6 mouse embryonic fibroblasts assessed as induction of histone H3 hyperacetylation in promoter region of Otx2 at 100 nM after 24 hrs by ChIP analysis
[12] = target: T1, Histone deacetylase 8 (Mus musculus); test: Inhibition of HDAC8 in C57BL/6 mouse embryonic fibroblasts assessed as induction of histone H3 hyperacetylation in promoter region of Cdh1 at 100 nM after 24 hrs by ChIP analysis
[13] = target: T1, Histone deacetylase 8 (Mus musculus); test: Inhibition of HDAC8 in C57BL/6 mouse embryonic fibroblasts assessed as induction of histone H3 hyperacetylation in promoter region of Oct3/4 at 100 nM after 24 hrs by ChIP analysis
[14] = target: T1, Histone deacetylase 8 (Mus musculus); test: Inhibition of HDAC8 in C57BL/6 mouse embryonic fibroblasts assessed as upregulation of Dppa4 expression at 100 nM after 24 hrs by qPCR analysis relative to control
[15] = target: T1, Histone deacetylase 8 (Mus musculus); test: Inhibition of HDAC8 in C57BL/6 mouse embryonic fibroblasts assessed as upregulation of Oct3/4 expression at 100 nM after 24 hrs by qPCR analysis relative to control
[16] = target: T1, Histone deacetylase 8 (Mus musculus); test: Inhibition of HDAC8 in C57BL/6 mouse embryonic fibroblasts assessed as upregulation of Otx2 expression at 100 nM after 24 hrs by qPCR analysis relative to control
[17] = target: T1, Histone deacetylase 8 (Mus musculus); test: Inhibition of HDAC8 in C57BL/6 mouse embryonic fibroblasts assessed as upregulation of Nanog expression at 100 nM after 24 hrs by qPCR analysis relative to control
[18] = target: T1, Histone deacetylase 8 (Mus musculus); test: Inhibition of HDAC8 in C57BL/6 mouse embryonic fibroblasts assessed as upregulation of Cdh1 expression at 100 nM after 24 hrs by qPCR analysis relative to control

Chain of Histone deacetylase 1 (Q13547 whole entry): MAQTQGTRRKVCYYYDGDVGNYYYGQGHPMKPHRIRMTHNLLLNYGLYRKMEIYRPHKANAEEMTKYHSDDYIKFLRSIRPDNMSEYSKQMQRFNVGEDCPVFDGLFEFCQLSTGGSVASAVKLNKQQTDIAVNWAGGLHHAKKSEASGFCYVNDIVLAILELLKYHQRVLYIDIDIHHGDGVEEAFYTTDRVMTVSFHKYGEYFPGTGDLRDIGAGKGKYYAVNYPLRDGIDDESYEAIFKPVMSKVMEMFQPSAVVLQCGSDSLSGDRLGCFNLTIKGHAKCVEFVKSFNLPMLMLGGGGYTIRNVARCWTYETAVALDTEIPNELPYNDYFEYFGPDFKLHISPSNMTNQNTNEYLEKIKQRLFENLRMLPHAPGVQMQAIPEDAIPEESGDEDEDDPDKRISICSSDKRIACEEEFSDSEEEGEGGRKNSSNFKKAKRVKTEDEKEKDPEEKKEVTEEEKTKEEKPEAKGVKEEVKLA
Chain of Histone deacetylase 2 (Q92769 whole entry): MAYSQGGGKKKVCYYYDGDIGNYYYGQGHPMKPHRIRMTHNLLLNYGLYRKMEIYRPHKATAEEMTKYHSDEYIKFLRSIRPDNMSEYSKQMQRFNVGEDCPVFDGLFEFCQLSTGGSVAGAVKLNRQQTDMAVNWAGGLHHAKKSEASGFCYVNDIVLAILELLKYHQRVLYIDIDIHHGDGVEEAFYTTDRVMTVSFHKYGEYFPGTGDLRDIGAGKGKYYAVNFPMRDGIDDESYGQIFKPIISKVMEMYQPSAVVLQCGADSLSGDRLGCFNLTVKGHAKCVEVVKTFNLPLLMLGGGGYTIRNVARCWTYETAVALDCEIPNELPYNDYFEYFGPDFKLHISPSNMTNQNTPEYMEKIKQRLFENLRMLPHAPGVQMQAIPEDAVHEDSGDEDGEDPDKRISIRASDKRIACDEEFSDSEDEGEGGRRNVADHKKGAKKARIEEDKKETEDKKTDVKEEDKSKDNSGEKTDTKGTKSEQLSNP

inhibition [1] | fold change (FC) [4] | inhibition [7] | fold change (FC) [8] | IC50 (Histone deacetylase 1) [nM] | IC50 (Histone deacetylase 2) [nM] | inhibition [9] | IC50 (Histone deacetylase 8) [nM] | inhibition [11] | inhibition [12] | inhibition [13] | fold change (FC) [14] | fold change (FC) [15] | fold change (FC) [16] | fold change (FC) [17] | fold change (FC) [18] | Compound | Activity (MEF [2]) | Activity (MEF [3]) | Activity (MEF [10]) | other results
Active | 60 | Active | 6 | 490 | 1120 | Active | 130 | Active | Active | Active | 2 | 20 | 74 | 16 | 25 | CN(C)CCCNC(=O)c1cc(NC(=O)c2cc(NC(=O)c3cc(NC(=O)c4nc(NC(=O)CCCNC(=O)c5cc(NC(=O)c6cc(NC(=O)c7cc(NC(=O)c8nc(NC(=O)CCNC(=O)CCNC(=O)CCCCCCC(=O)NO)cn8C)cn7C)cn6C)cn5C)cn4C)cn3C)cn2C)cn1C | inactive | inactive | Non-toxic | fold change (FC) [5]: 2.6; Ratio IC50 [6]: 10
inactive | 60 | Active | 6 | 370 | 770 | Active | 820 | Active | Active | Active | 2 | 20 | 40 | 20 | 25 | CN(C)CCCNC(=O)c1cc(NC(=O)c2cc(NC(=O)c3cc(NC(=O)c4nc(NC(=O)CCCNC(=O)c5cc(NC(=O)c6cc(NC(=O)c7cc(NC(=O)c8nc(NC(=O)CCNC(=O)CCNC(=O)c9ccc(NC(=O)CCCCCCC(=O)NO)cc9)cn8C)cn7C)cn6C)cn5C)cn4C)cn3C)cn2C)cn1C | inactive | inactive | Non-toxic | inhibition [5]: inactive
